In experiment [1] the test system is STRC2-Ascl1/Myt1l neuronal cells from MEFs. Put plainly: Patch clamp electrophysiology of STRC2-Ascl1/Myt1l induced neuronal cells. The experiment is classed as cell-based, mouse. On the technique in general: In patch-clamp work, channel activity is measured electrically.
In experiment [2] the target is rat Group II mGlu receptor. Conditions: read-out: IC50 against rat Group II mGlu receptor; cited from earlier work.
Experiment [3] deals with Tau-EGFP mouse embryonic fibroblasts transduced with Ascl1/Myt1l. The experiment can be described thus: High-throughput compound screening for Tau-EGFP expression and neuronal morphology. Conditions: individual compound plus doxycycline 7 days, analysed day 14; hits confirmed dose-dependently in larger well format. In kind it is cell-based. The procedure: Infected Tau-EGFP MEFs in 150-mm dishes were dissociated by trypsinization and plated to 384-well plates with 4×10^3 cells per well in 50 μl of N2B27 medium plus 2.0 μg ml^−1 doxycycline by using Multi-drop (Thermo Fisher). Fifty nanoliters of compounds from a collection of known drugs (˜3,000) were added to each well of infected cells by using BioMek (BD). After 3 days of compound treatment, […] N2B27 media were added to each well to keep the medium volume at 55-60 μl. The total period of compound treatment is 7 days. After that, medium was replaced with neuronal maturation medium for another 7 days. The cells were then fixed for immunostaining on Day 14. The high-throughput imaging was performed by using InCell 2000. Finally, the screening result was analyzed by InCell Workstation 2000.
To conduct the chemical screening, Tau-EGFP mouse embryonic fibroblasts were used that were transduced with an Ascl1/Myt1l coding region that was under control of tet operator. These cells were plated at 4,000 cells/well in 384-well plates containing chemically defined N2B27 media. After overnight incubation, the cells were treated for seven days with doxycycline to induce Ascl1/Myt1l expression and also contacted with individual compounds selected from a drug collection containing over 3000 compounds. The media was then replaced with compound-free standard neuronal media. Cells were fixed at day 14 then analyzed for Tau-EGFP expression and neuronal morphology by high content imaging (FIG. 4A and FIG. 3).

The next experiment deals with PDE4. The note with it: read-out: IC50 against PDE4; cited from earlier work.
The test system of experiment [4] is histone deacetylases (HDACs). The note with it: read-out: IC50 (histone deacetylase), cited from earlier work.
Another experiment has as its target mGlu4 (Homo sapiens, UniProt Q14833). The note with it: cited from earlier work.
For the next experiment, the target named is adenylate cyclase 1 (Homo sapiens, UniProt Q08828). Conditions: cited from earlier work.
Chain of adenylate cyclase 1 (Q08828 whole entry): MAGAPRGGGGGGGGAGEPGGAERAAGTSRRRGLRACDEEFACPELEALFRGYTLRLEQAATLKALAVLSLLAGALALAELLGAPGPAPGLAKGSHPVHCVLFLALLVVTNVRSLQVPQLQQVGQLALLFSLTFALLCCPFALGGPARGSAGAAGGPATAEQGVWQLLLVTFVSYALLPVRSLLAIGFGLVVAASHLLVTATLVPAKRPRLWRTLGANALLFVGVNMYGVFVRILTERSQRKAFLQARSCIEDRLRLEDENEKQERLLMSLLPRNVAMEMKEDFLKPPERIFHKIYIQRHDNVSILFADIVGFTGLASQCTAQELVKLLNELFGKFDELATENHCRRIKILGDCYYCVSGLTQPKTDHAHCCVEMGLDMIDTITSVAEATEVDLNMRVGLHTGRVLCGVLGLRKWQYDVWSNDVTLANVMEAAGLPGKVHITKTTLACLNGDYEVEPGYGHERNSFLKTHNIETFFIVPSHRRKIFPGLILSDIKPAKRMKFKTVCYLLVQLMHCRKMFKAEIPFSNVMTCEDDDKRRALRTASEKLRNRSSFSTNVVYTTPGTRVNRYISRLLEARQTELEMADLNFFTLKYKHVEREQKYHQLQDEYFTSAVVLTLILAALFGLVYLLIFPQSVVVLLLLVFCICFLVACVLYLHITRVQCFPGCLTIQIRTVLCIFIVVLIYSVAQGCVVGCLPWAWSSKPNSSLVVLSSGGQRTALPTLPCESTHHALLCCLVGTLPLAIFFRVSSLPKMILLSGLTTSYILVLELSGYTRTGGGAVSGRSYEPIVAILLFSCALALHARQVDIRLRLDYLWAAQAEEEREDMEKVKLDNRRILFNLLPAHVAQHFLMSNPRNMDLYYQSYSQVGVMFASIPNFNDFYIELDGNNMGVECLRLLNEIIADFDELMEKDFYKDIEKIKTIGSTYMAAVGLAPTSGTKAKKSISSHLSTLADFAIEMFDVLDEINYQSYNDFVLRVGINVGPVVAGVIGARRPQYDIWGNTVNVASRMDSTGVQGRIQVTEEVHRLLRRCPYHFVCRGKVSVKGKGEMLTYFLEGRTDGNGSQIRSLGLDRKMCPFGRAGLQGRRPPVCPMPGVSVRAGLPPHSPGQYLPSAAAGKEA
In the next experiment the target is SAPK2/p38 (Homo sapiens, UniProt Q16539). The note with it: inhibitor of CK1 and ALK5; cited from earlier work.
Chain of SAPK2/p38 (Q16539 whole entry): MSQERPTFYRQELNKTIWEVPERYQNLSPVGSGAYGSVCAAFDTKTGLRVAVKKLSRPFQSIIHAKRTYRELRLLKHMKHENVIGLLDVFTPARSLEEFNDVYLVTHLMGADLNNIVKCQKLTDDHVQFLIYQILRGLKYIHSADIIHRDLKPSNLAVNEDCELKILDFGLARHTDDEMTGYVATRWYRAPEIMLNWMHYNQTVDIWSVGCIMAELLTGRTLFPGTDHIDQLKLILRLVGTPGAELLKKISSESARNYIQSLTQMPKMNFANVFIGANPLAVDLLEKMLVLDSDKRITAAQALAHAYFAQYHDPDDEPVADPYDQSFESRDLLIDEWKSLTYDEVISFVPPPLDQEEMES
The subject of experiment [5] is HDAC activity in HeLa extracts. The note with it: read-out: IC50 for inhibition of HDAC activity; cited from earlier work.
Experiment [6] addresses histone acetyltransferase p300 (Homo sapiens, UniProt Q09472). Conditions: simplified analog of CTPB; cited from earlier work.
Experiment [7] deals with RFP-positive miR124-RFP/Brn2 human fibroblast-derived cells. Put plainly: Patch clamp electrophysiology of STRC2-treated miR124-RFP/Brn2 cells. The experiment is classed as cell-based.
A further experiment addresses mGlu receptors. The note with it: cited from earlier work.

By IC50 is commonly meant the concentration that gives 50% inhibition. By EC50 is commonly meant the concentration at which the effect is half-maximal.

Where two headings read alike, the source gives them in different places.

Chain of mGlu4 (Q14833 33-912): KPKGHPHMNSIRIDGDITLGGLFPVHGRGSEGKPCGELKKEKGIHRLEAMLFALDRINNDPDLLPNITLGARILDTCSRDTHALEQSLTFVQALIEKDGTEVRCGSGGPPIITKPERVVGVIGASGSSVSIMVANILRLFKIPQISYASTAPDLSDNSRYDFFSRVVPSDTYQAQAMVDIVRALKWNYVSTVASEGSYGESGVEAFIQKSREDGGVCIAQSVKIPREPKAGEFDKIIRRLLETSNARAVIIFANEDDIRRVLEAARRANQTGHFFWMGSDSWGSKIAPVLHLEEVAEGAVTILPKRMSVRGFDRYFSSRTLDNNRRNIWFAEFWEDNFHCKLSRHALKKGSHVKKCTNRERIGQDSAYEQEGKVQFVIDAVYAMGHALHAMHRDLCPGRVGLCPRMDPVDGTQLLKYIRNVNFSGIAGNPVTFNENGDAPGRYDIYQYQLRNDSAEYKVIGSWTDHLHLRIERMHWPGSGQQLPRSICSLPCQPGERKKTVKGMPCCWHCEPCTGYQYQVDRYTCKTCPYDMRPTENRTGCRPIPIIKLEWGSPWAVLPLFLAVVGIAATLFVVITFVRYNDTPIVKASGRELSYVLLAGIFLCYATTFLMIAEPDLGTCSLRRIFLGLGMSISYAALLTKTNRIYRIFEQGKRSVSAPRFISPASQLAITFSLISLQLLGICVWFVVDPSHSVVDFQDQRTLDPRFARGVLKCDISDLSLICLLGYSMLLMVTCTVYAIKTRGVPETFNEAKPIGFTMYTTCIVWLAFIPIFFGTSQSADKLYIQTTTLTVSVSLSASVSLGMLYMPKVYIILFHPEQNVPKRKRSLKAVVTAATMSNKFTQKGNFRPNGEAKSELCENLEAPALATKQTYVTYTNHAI
Chain of histone acetyltransferase p300 (Q09472 whole entry, species assumed): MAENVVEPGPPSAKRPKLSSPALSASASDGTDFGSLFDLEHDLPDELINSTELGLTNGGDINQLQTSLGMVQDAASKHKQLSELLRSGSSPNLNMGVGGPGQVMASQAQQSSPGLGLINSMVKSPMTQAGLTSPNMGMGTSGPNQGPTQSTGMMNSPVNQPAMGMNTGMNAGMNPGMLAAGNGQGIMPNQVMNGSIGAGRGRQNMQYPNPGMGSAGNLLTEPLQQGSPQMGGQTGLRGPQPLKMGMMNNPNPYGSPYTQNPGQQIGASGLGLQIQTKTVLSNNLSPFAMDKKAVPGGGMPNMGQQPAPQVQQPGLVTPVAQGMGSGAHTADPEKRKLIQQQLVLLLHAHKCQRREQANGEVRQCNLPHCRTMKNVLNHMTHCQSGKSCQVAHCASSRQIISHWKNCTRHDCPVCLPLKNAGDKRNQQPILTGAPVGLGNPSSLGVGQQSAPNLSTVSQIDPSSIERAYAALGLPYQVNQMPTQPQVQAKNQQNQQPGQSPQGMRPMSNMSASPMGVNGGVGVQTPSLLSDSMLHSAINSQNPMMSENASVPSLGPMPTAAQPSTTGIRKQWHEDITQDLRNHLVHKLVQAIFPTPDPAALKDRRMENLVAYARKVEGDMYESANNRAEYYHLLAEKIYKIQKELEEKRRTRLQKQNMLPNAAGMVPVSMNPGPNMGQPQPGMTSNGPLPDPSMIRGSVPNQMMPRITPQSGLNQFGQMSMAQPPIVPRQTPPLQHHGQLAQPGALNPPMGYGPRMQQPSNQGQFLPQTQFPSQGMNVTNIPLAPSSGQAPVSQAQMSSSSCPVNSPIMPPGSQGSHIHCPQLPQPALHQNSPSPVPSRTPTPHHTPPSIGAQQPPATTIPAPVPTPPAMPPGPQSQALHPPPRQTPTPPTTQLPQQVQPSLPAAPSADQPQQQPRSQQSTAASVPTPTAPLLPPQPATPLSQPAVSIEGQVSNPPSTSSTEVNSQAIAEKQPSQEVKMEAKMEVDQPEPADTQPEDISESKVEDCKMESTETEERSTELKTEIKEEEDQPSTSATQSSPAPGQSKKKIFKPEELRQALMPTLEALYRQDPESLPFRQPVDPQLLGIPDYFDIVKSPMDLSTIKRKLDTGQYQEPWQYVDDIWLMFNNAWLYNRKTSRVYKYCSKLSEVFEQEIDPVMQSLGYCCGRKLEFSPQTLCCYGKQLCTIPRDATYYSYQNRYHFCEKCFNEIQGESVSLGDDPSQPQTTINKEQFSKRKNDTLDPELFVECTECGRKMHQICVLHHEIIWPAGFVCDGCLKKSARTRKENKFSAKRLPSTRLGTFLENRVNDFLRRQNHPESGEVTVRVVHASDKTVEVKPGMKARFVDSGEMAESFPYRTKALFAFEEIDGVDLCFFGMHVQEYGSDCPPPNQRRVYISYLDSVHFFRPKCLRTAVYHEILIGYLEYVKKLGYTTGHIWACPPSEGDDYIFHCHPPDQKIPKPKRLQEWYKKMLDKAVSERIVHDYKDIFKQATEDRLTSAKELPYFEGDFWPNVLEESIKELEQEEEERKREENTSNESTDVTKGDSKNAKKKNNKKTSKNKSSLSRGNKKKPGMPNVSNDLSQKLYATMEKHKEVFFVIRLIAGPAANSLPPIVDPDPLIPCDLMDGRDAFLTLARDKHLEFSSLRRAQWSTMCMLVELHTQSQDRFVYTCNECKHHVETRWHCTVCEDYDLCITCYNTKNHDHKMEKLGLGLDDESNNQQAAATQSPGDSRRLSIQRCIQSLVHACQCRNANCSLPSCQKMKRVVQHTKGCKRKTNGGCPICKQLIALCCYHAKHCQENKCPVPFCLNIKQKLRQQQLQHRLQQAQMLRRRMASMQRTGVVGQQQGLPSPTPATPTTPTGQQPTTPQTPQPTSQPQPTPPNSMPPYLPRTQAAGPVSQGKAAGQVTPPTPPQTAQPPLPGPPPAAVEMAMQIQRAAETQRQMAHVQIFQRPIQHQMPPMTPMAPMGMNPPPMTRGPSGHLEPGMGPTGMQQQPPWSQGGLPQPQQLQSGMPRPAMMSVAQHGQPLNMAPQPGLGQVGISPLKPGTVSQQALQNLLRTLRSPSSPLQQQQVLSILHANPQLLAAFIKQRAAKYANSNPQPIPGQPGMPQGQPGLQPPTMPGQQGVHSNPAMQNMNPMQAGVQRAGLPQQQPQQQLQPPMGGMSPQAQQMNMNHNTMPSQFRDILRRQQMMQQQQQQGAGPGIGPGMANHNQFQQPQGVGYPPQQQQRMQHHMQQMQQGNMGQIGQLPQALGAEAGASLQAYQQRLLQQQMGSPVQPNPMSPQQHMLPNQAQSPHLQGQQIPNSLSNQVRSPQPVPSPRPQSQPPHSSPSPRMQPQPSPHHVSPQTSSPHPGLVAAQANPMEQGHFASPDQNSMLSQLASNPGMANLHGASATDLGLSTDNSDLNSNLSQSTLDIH

Take `NS(=O)(=O)c1cccc2c1c([N+](=O)[O-])cc1nc(O)c(O)nc12` [NBQX, 2,3-dihydroxy-6-nitro-7-sulfamoylbenzo quinoxaline]: the “effect on spontaneous excitatory postsynaptic current (sEPSC)” value in experiment [1] (AMPA receptor antagonist, 10 μM) is given as “blocked”.

As to `N[C@@]1(C(=O)O)CC[C@H]2[C@H](C(=O)O)[C@H]21` [LY354740, 1S,2S,5R,6S-2-aminobicyclo[3.1.0]hexane-2,6-dicarboxylate], the IC50 in [2] is approximately 254 nM.

Take `CCOC(=O)c1ccc(N(C)C2CSC(c3ccccc3)=N2)cc1` (stereo not shown) [KHS2, ethyl 4-(methyl(2-phenyl-4,5-dihydrothiazol-4-yl)amino)benzoate]: the “induction of Tau-EGFP expression and neuronal morphology (screen hit)” value in [3] is “induce Tau-EGFP expression and a neuronal morphology”.

Regarding `O=C(Nc1c(Cl)cncc1Cl)c1ccc(OC(F)F)c(OCC2CC2)c1` [roflumilast, 3-(cyclopropylmethoxy)-N-(3,5-dichloropyridin-4-yl)-4-(difluoromethoxy)benzamide], the IC50 in the experiment on PDE4 was 0.6 nM.

On to `CC(/C=C/C(=O)NO)=C\[C@@H](C)C(=O)c1ccc(N(C)C)cc1` [Trichostatin A, (R,2E,4E)-6-(4-(dimethylamino)benzoyl)-N-hydroxy-4-methylhepta-2,4-dienamide], for which, in experiment [3], the “induction of Tau-EGFP expression and neuronal morphology (screen hit)” value is “induce Tau-EGFP expression and a neuronal morphology”. Further, the IC50 in experiment [4] is approximately 1.8 nM.

With `Cc1cc(C)cc(C(=O)OC2CC3CCC(C2)N3C)c1` (stereo not shown) [TDMB, Tropanyl-3,5-dimethylbenzoate], in experiment [3], the “induction of Tau-EGFP expression and neuronal morphology (screen hit)” value is “induce Tau-EGFP expression and a neuronal morphology”.

Take `Nc1ccccc1NC(=O)c1ccc(CNc2nccc(-c3cccnc3)n2)cc1` [MGCD0103, N-(2-aminophenyl)-4-[[(4-pyridin-3-ylpyrimidin-2-yl)amino]methyl]benzamide]: in [4] (isoform not stated), the IC50 was approximately 100 nM.

Take `CCCCCCCCCCCCCCCc1cccc(OCC)c1C(=O)Nc1ccc(Cl)c(C(F)(F)F)c1` [CTPB, N-(4-chloro-3-trifluoromethyl-phenyl)-2-ethoxy-6-pentadecyl-benzamide]: the “induction of Tau-EGFP expression and neuronal morphology (screen hit)” value in experiment [3] was “induce Tau-EGFP expression and a neuronal morphology”.

For the compound `COc1ccc(C2CNC(=O)C2)cc1OC1CCCC1` (stereo not shown) [rolipram, 4-(3-cyclopentyloxy-4-methoxyphenyl)pyrrolidin-2-one], in experiment [3], the “induction of Tau-EGFP expression and neuronal morphology (screen hit)” value is “induce Tau-EGFP expression and a neuronal morphology”.

Regarding `COc1ccc(C(=O)Nc2c(Cl)c[n+]([O-])cc2Cl)c2ccc(C(F)(F)F)nc12` [Sch-351591], in the experiment with PDE4, the half-inhibitory concentration (IC50) was 150 nM.

For `NC(=O)[C@H]1CCCC[C@H]1C(=O)Nc1ccc(Cl)c(Cl)c1` [Lu AF21935, (1R,2S)-N1-(3,4-dichlorophenyl)cyclohexane-1,2-dicarboxamide], on mGlu4, the EC50 is more than 10000 nM.

In the case of `NC(=O)[C@@H]1CCCC[C@@H]1C(=O)Nc1ccc(Cl)c(Cl)c1` [Lu AF21934, (1S,2R)-N1-(3,4-dichlorophenyl)cyclohexane-1,2-dicarboxamide], the EC50 at mGlu4 was 500 nM.

As to `O=C(O)c1ccc(-c2ccc3cc(O)c(C45CC6CC(CC(C6)C4)C5)cc3c2)cc1` [CD1530, 4-(6-hydroxy-7-tricyclo[3.3.1.13,7]dec-1-yl-2-naphthalenyl)benzoic acid], in [3], the “induction of Tau-EGFP expression and neuronal morphology (screen hit)” value is “induce Tau-EGFP expression and a neuronal morphology”.

With `C=C[C@@]1(C)CC(=O)[C@]2(O)[C@@]3(C)[C@@H](O)CCC(C)(C)[C@@H]3[C@H](O)[C@H](OC(C)=O)[C@@]2(C)O1` [Forskolin], the half-maximal inhibitory concentration (IC50) at adenylate cyclase 1 is 40 to 150 nM.

Consider `NC(=O)c1ccc(-c2nc(-c3ccc4c(c3)OCCO4)c(-c3ccccn3)[nH]2)cc1` [D 4476, 4-[4-(2,3-Dihydro-1,4-benzodioxin-6-yl)-5-(2-pyridinyl)-IH-imidazol-2-yl]benzamide], for which the “selectivity over SAPK2/p38” value at SAPK2/p38 was “greater than 20 fold”.

With `COc1ccc([C@H](Cc2ccncc2)c2ccccc2)cc1OC1CCCC1` [CDP-840, 4-[(2R)-2-(3-cyclopentyloxy-4-methoxyphenyl)-2-phenylethyl]pyridine], the half-maximal inhibitory concentration (IC50) in the experiment with PDE4 is approximately 10000 nM.

As for `Nc1ccccc1NC(=O)CCCCCCC(=O)Nc1ccccc1` [BML-210, N1-(2-aminophenyl)-N8-phenyl-octanediamide], the half-maximal inhibitory concentration (IC50) in [5] was approximately 80000 nM.

As to `Nc1ccccc1NC(=O)c1ccc(CNC(=O)OCc2cccnc2)cc1` [MS-27-275, pyridin-3-ylmethyl-N-[[4-[(2-aminophenyl)carbamoyl]phenyl]methyl]carbamate], the IC50 in experiment [4] was 100 to 1000 nM.

With `C[C@@H](N)[C@H]1CC[C@H](C(=O)Nc2ccncc2)CC1` [Y27632, 4-[(1R)-1-aminoethyl]-N-pyridin-4-ylcyclohexane-1-carboxamide], the “induction of Tau-EGFP expression and neuronal morphology (screen hit)” value in experiment [3] is “induce Tau-EGFP expression and a neuronal morphology”.

As for `NC(=O)c1ccc(-c2nc(-c3ccc4c(c3)OCO4)c(-c3ccccn3)[nH]2)cc1` [SB 431542, 4-[4-(1,3-benzodioxol-5-yl)-5-(2-pyridinyl)-1H-imidazol-2-yl]benzamide], the “induction of Tau-EGFP expression and neuronal morphology (screen hit)” value in experiment [3] is “induce Tau-EGFP expression and a neuronal morphology”.

For the compound `CCc1nn(C2CCCC2)c2c1CCn1c(-c3cccs3)nnc1-2` [tofimilast], the half-inhibitory concentration (IC50) with PDE4 was approximately 13 nM.

For the compound `COc1ccc(C(=O)Nc2cc(Cl)cnc2Cl)c2cccnc12` [D-4418, N-(2,5-dichloropyridin-3-yl)-8-methoxyquinoline-5-carboxamide], the half-inhibitory concentration (IC50) in the experiment with PDE4 was approximately 170 nM.

On to `CCOc1ccccc1C(=O)Nc1ccc(Cl)c(C(F)(F)F)c1` [CTB, N-(4-chloro-3-trifluoromethyl-phenyl)-2-ethoxybenzamide], for which the “activity as p300 activator relative to CTPB” value in experiment [6] is “comparable or higher activity”.

For `O=C(Nc1cc(Cl)cc(Cl)c1)[C@H]1CCCC[C@H]1C(=O)O` (relative stereo) [VU0155041, cis-2-[[(3,5-dichlorophenyl)amino]carbonyl]cyclohexanecarboxylic acid], the concentration for a half-maximal effect (EC50) on mGlu4 was 1000 nM.

Take `NC1=N[C@H](O)[C@H]2[C@H]3O[C@]4(O)O[C@@H]([C@@H](O)[C@@]2(N1)[C@@H]4O)[C@]3(O)CO` [TTX, tetrodotoxin]: in experiment [7], the “effect on trains of action potentials” value was “abolished”.

Take `N[C@@]1(C(=O)O)CC[C@@H](C(=O)O)C1` [ACPD, (1S,3R)-1-aminocyclopentane-1,3-dicarboxylic acid]: the “induction of Tau-EGFP expression and neuronal morphology (screen hit)” value in [3] was “induce Tau-EGFP expression and a neuronal morphology”. Moreover, on mGlu receptors, the EC50 was 9000 to 40000 nM.

As to “(2S,3S,4R,5R)-3,4-dihydroxy-5-[6-[(3-iodophenyl)methylamino]purin-9-yl]-N-ethyloxolane-2-carboxamide [IB-MECA]”, the “induction of Tau-EGFP expression and neuronal morphology (screen hit)” value in [3] was “induce Tau-EGFP expression and a neuronal morphology”.

Regarding `CC1(C)NC(=O)C(CCCCCC(=O)[C@H]2CO2)NC(=O)C2CCCN2C(=O)[C@@H](Cc2ccccc2)NC1=O` (stereo partly drawn) [Chlamydocin, (3R)-3-benzyl-6,6-dimethyl-9-[6-[(2R)-oxiran-2-yl]-6-oxohexyl]-1,4,7,10-tetrazabicyclo[10.3.0]pentadecane-2,5,8,11-tetrone], the IC50 in experiment [4] (isoform not stated) was approximately 0.15 nM.

On to picrotoxin, for which the “effect on inhibitory postsynaptic currents (sIPSCs)” value in experiment [1] (GABAA receptor antagonist, 50 μM) is listed as “blocked”.

Regarding `Cc1cc2c3c(c1)C(c1ccccc1)=N[C@@H](NC(=O)c1ccncc1)C(=O)N3CC2` [Cl-1018, N-[(3R)-9-methyl-4-oxo-1-phenyl-3,4,6,7-tetrahydro[1,4]diazepino[6,7,1-hi]indol-3-yl]pyridine-4-carboxamide], in the experiment on PDE4, the IC50 is approximately 3000 nM.

Regarding `Cc1c[nH]c(-c2cnc(NCCNc3ccc(C#N)cn3)nc2-c2ccc(Cl)cc2Cl)n1` [CHIR99021, 6-(2-(4-(2,4-dichlorophenyl)-5-(4-methyl-1H-imidazol-2-yl)pyrimidin-2-ylamino)ethylamino)nicotinonitrile], in experiment [3], the “induction of Tau-EGFP expression and neuronal morphology (screen hit)” value was “induce Tau-EGFP expression and a neuronal morphology”.

Take `COc1ccc(C2(C#N)CCC(C(=O)O)CC2)cc1OC1CCCC1` (stereo not shown) [ariflo, 4-cyano-4-(3-cyclopentyloxy-4-methoxyphenyl)cyclohexane-1-carboxylic acid]: the IC50 in the experiment with PDE4 is approximately 150 nM.

(Values after patent US10500232B2, “Small molecule cellular reprogramming to generate neuronal cells” (The J. David Gladstone Institutes, a testamentary trust …, priority 2013, dated 2019).)
